According to patent publication US20240318141A1, “MATURATION AGENT” (Orizuru Therapeutics, Inc., priority 2021, published 2024):
Where “and” joins values, the source holds several entries; their conditions need not be identical. Equal values may be shown once.

Tests used:
[1] = test system: non-endocrine cells in insulin-producing cell population (QHJI-I14s04 iPS cell line); experiment: Cisplatin or docetaxel treatment in step 6), then extended culture in basal medium containing EGF (Example 2); assay type: cell-based, human
Source text: The differentiation of a QHJI-I14s04 iPS cell line into an insulin-producing cell population was induced by the three-dimensional culture method using a bioreactor according to steps 1) to 6) described above and the previous report (Nature Biotechnology 2014; 32: 1121-1133). Specifically, the iPS cells were subjected to the first culture in a medium (DMEM/1% B-27 (INS+)/Penicillin Streptomycin/dimethyl sulfoxide) containing differentiation-inducing factors (GSK3β inhibitor, ROCK inhibitor and low dose of activin A) under conditions causing action of insulin, and subsequently subjected to the second culture in a medium (DMEM/1% B-27 (INS−)/Penicillin Streptomycin/dimethyl sulfoxide) containing a differentiation-inducing factor (low dose of activin A) under conditions causing no action of insulin to obtain a definitive endoderm cell population. Further, a pancreatic endocrine progenitor cell population obtained by the induction of differentiation from the definitive endoderm cell population was cultured in a medium (Improved MEM/1% B-27 (INS+)/Penicillin Streptomycin) containing differentiation-inducing factors (ALK5 inhibitor II, T3, LDN, Y-secretase inhibitor RO, and ascorbic acid) and FGF receptor 1 inhibitor (PD-166866) to obtain an insulin-producing cell population.
An insulin-producing cell population obtained without the addition of cisplatin and docetaxel was used as a control cell population and subjected to extended culture in the same manner as above.
Marker protein expression (PDX1, CHGA, and Ki67) in each insulin-producing cell population before the start of and after the completion of extended culture was measured by flow cytometry. Samples after the completion of extended culture were collected by sampling three times from the same culture container. The number of cells was measured in an automatic cell counter at the time of sample preparation for flow cytometry, and the total number of cells per mL of the bioreactor was calculated. The number of CHGA-positive cells, the number of PDX1-positive and CHGA-negative cells, and the number of PDX1-negative and CHGA-negative cells were calculated from the obtained total number of cells and the flow cytometry results.

[2] = test system: insulin-producing cell population (QHJI-114s04 iPS cell line); conditions: induction of differentiation using medium supplemented with FGF receptor 1 inhibitor; see WO2019/208505; cited from earlier work
[3] = test system: non-endocrine cells in insulin-producing cell population (Ff-I14s04 iPS cell line); experiment: Extended culture of insulin-producing cell population in basal medium containing EGF (Example 1); assay type: cell-based, human
Source text: The differentiation of a Ff-I14s04 iPS cell line into an insulin-producing cell population was induced by the three-dimensional culture method using a bioreactor and a multiwell plate according to steps 1) to 6) described above and the previous report (Nature Biotechnology 2014; 32: 1121-1133). Specifically, the iPS cells were subjected to the first culture in a medium (DMEM/1% B-27 (INS+)/Penicillin Streptomycin/dimethyl sulfoxide) containing differentiation-inducing factors (GSK3β inhibitor, ROCK inhibitor and low dose of activin A) under conditions causing action of insulin, and subsequently subjected to the second culture in a medium (DMEM/1% B-27 (INS−)/Penicillin Streptomycin/dimethyl sulfoxide) containing a differentiation-inducing factor (low dose of activin A) under conditions causing no action of insulin to obtain a definitive endoderm cell population. Further, a pancreatic endocrine progenitor cell population obtained by the induction of differentiation from the definitive endoderm cell population was cultured in a medium (Improved MEM/1% B-27 (INS+)/Penicillin Streptomycin) containing differentiation-inducing factors (ALK5 inhibitor II, T3, LDN, γ-secretase inhibitor RO, and ascorbic acid) and FGF receptor 1 inhibitor (PD-166866) to obtain an insulin-producing cell population. The exchange from the bioreactor to the multiwell plate was carried out in step 6).
The insulin-producing cell population was subjected to extended culture for 4 weeks in a basal medium (MCDB131/20 mM Glucose/NaHCO3/FAF-BSA/ITS-X/Glutamax/Penicillin Streptomycin). EGF, when added for the purpose of promoting the proliferation of unintended cells, was added at 50 ng/ml (final concentration) to the basal medium for culture.
Marker protein expression (PDX1 and CHGA) in the insulin-producing cell population before the start of and after the completion of extended culture was measured by flow cytometry. Respective samples were collected by sampling from separate culture containers. The number of cells was measured in an automatic cell counter at the time of sample preparation for flow cytometry, and the total number of cells per well of the multiwell plate was calculated. The number of CHGA-positive cells, the number of PDX1-positive and CHGA-negative cells, and the number of PDX1-negative and CHGA-negative cells were calculated from the obtained total number of cells and the flow cytometry results.

[4] = after extended culture 4 weeks, EGF present, average of three samplings
[5] = after extended culture 4 weeks, EGF present, single samplings
[6] = after extended culture involving EGF, with respect to control cell population
[7] = s6d11 (before extended culture); 3 μM cisplatin or 1 μM docetaxel for 7 days from day 4 of step 6)
[8] = after extended culture 4 weeks, EGF present (50 ng/ml)
[9] = extended culture in basal medium containing EGF

Molecule: N.N.[Cl][Pt][Cl] [Cisplatin, cisplatin]
- The number of cells CHGA+, average [1, 4]: 23 ×10^4 cells/mL
- The number of cells PDX+/CHGA−, average [1, 4]: 97 ×10^4 cells/mL
- The number of cells PDX−/CHGA−, average [1, 4]: 5.4 ×10^4 cells/mL
- Total number of cells, average [1, 4]: 125 ×10^4 cells/mL
- The number of cells CHGA+ [1, 5]: 24 ×10^4 cells/mL and 21 ×10^4 cells/mL
- The number of cells PDX+/CHGA− [1, 5]: 97 ×10^4 cells/mL and 84 ×10^4 cells/mL and 110 ×10^4 cells/mL
- The number of cells PDX−/CHGA− [1, 5]: 4.5 ×10^4 cells/mL and 4.4 ×10^4 cells/mL and 7.2 ×10^4 cells/mL
- Total number of cells [1, 5]: 125 ×10^4 cells/mL and 109 ×10^4 cells/mL and 141 ×10^4 cells/mL
- proportion of PDX1-negative and CHGA-negative (PDX1−/CHGA−) cells [1, 6]: drastically decreased
- proportion of PDX1-positive and CHGA-negative (PDX1+/CHGA−) cells [1, 6]: no large change
- total number of cells after extended culture (in words) ([1]; extended culture involving EGF): increased
- The number of cells CHGA+ [1, 7]: 88 ×10^4 cells/mL
- The number of cells PDX+/CHGA− [1, 7]: 2.7 ×10^4 cells/mL
- The number of cells PDX−/CHGA− [1, 7]: 0.3 ×10^4 cells/mL
- Total number of cells [1, 7]: 91 ×10^4 cells/mL
- number of CHGA-positive endocrine cells after extended culture (in words) ([1]; with respect to control cell population): not changed

Molecule: COc1cc(OC)cc(-c2cc3cnc(N)nc3nc2NC(=O)NC(C)(C)C)c1 [PD-166866, 1-[2-amino-6-(3,5-dimethoxyphenyl)-pyrido(2,3-d)pyrimidin-7-yl]-3-tert-butylurea]
- abundance of CHGA-negative and Ki67-positive (CHGA−/Ki67+) cells (in words) [2]: drastically reduced

Molecule: EGF: epidermal growth factor added at 50 ng/ml to basal medium to promote proliferation of unintended cells
- The number of cells CHGA+ [3, 8]: 128 ×10^4 cells/well and 123 ×10^4 cells/well
- The number of cells PDX+/CHGA− [3, 8]: 27 ×10^4 cells/well and 32 ×10^4 cells/well
- Total number of cells [3, 8]: 198 ×10^4 cells/well and 222 ×10^4 cells/well and 281 ×10^4 cells/well
- number of CHGA-positive endocrine cells (in words) [3, 9]: no large change
- proportions of PDX1+/CHGA− and PDX1−/CHGA− non-endocrine cells [3, 9]: markedly increased
- total number of cells after extended culture (in words) [3, 9]: increased
